From patent publication US8497074B2, “Granin proteins as markers of heart disease” (Universitetet I Oslo, priority 2008, dated 2013) come the findings set out here.

Entries after “also recorded” stand apart in the source; their conditions may differ.

Common to all, as to assay type: cell-based
The subject of test [1] is neonatal rat cardiomyocytes. As to the kind of experiment: CgB gene expression in isolated neonatal cardiomyocytes after stimulation with signaling agents (qRT-PCR). As for the experimental part:
(§1) Neonatal rat cardiomyocytes were isolated from neonatal (1-3 days) Wistar rats (Taconic, Skensved, Denmark) as previously reported. After 24 hours starvation, the cardiomyocytes were stimulated for 24 hours with the following agents; Forskolin [1 and 10 μM], norepinephrine [100 μM], endothelin [77 ng/ml] and angiotensin II [1 μM] (all Sigma, Europe), tumor necrosis factor-α (TNF-α) [10 ng/ml] (BioSource International Camarillo, Calif., USA), interleukin-1β (IL-1β) [10 ng/ml], monocyte chemoattractant protein-1 (MCP-1) [200 ng/ml], transforming growth factor-β (TGF-β) [10 ng/ml] (all R&D Systems, Minneapolis, Minn., USA), and a C-terminal CgB peptide—CgB312-323 [1, 10 and 100 ng/ml] (053-20, Phoenix Pharmaceuticals, Burlingame, Calif., USA).
(§2) Total RNA was isolated from neonatal rat cardiomyocytes according to the protocol (RNeasy mini kit, Qiagen, Valencia, Calif., USA). Along with lysis buffer, the Mixer Mill 300 System (RETSCH, Haan, Germany) and stainless steel beads (Qiagen, Hilden, Germany) were used for mechanical disruption of the cells. RNA concentrations and quality were assessed as earlier described with the NanoDrop system and an Agilent BioAnalyzer 2100. Reverse transcription reactions were performed with iScript Select cDNA Synthesis Kit (Bio-Rad Laboratories, Inc., Hercules, Calif., USA). Gene expression was determined by qRT-PCR with pre-made TaqMan Gene Expression Assays from Applied Biosystems: CgB (Rn01514853—1), BNP (Rn00580641—1), Rp14 (Rn00821091—1). Gene expression in stimulated cells is presented as change vs. gene expression in PBS stimulated cells (normalized vs. control). All samples were run in triplicate and Rp14 gene expression was used as an internal control.
as §1, with “factor-α(TNF-α)” for “factor-α (TNF-α)”, “peptide—CgB312-323 and secretoneurin” for “peptide—CgB312-323”, “(053-20, 047-95,” for “(053-20,”
as §2, with “Biosystems: SgII (Rn01400686—1),” for “Biosystems:”

The test system of test [2] is neonatal rat cardiomyocytes. As to the kind of experiment: BNP gene expression in isolated neonatal cardiomyocytes after stimulation with signaling agents (qRT-PCR). The conditions noted are these: stimulated for 24 hours, vs. PBS stimulated cells. As for the experimental part: as §1, §2
as §1, with “factor-α(TNF-α)” for “factor-α (TNF-α)”, “peptide—CgB312-323 and secretoneurin” for “peptide—CgB312-323”, “(053-20, 047-95,” for “(053-20,”
as §2, with “Biosystems: SgII (Rn01400686—1),” for “Biosystems:”

In test [3] the test system is neonatal rat cardiomyocytes. As to the kind of experiment: SgII gene expression in isolated neonatal cardiomyocytes after stimulation with signaling agents (qRT-PCR). The settings on record: stimulated for 24 hours, vs. PBS stimulated cells. As for the experimental part:
as §1, with “factor-α(TNF-α)” for “factor-α (TNF-α)”, “peptide—CgB312-323 and secretoneurin” for “peptide—CgB312-323”, “(053-20, 047-95,” for “(053-20,”
as §2, with “Biosystems: SgII (Rn01400686—1),” for “Biosystems:”
(Real-time PCR tracks product formation cycle by cycle.)

The mark [4] stands for this setting: neonatal rat cardiomyocytes, stimulated for 24 hours, vs. PBS stimulated cells.

transforming growth factor-β: the “change in CgB gene expression (in words)” value in test [1] (setting [4]) is listed as “significantly upregulated”; in test [1] (neonatal rat cardiomyocytes, stimulated for 24 hours, vs. PBS stimulated cells, listed as TGF-β), “upregulated; also recorded: potent agents for upregulating”. The “change in BNP gene expression (in words)” value in test [2] (listed as TGF-β) is given as “increased; also recorded: potent agents for upregulating”. For the same compound, the “SgII gene expression increase” value in test [3] is recorded as 85%. Further, the “change in SgII gene expression (in words)” value in test [3] (listed as TGF-β) is recorded as “potent agents for upregulating; also recorded: increased”.

Regarding monocyte chemoattractant protein-1, the “change in CgB gene expression (in words)” value in test [1] (setting [4]) is given as “significantly upregulated”; in test [1] (neonatal rat cardiomyocytes, stimulated for 24 hours, vs. PBS stimulated cells, listed as MCP-1), “upregulated”. The “change in SgII gene expression (in words)” value in test [3] is listed as “no significant change”.

In the case of “angiotensin II (DRVYIHPF; Angiotensin-2; UniProt P01019 25-32, looked up)”, the “change in CgB gene expression (in words)” value in test [1] (setting [4]) is given as “significantly upregulated”; in test [1] (neonatal rat cardiomyocytes, stimulated for 24 hours, vs. PBS stimulated cells, listed as AT II), “upregulated”; in test [1] (neonatal rat cardiomyocytes, stimulated for 24 hours, vs. PBS stimulated cells, listed as Angiotensin II), “significantly upregulated”. In test [2], the “change in BNP gene expression (in words)” value is given as “increased”. For the same compound, the “change in SgII gene expression (in words)” value in test [3] is “no significant change”.

On to `NC[C@H](O)c1ccc(O)c(O)c1` [norepinephrine], for which the “CgB gene expression, times upregulated” value in test [1] (isolated cardiomyocytes, change vs. PBS stimulated cells (FIG. 8A)) was found to be 3 ×. Further, the “CgB gene expression, fold increase” value in test [1] (neonatal rat cardiomyocytes, stimulated for 24 hours, change vs. PBS stimulated cells) is recorded as 3 fold. Also, the “change in CgB gene expression (in words)” value in test [1] (neonatal rat cardiomyocytes, stimulated for 24 hours, vs. PBS stimulated cells, listed as NA) is “upregulated; also recorded: potent agents for upregulating”. Besides, the “change in BNP gene expression (in words)” value in test [2] (listed as NA) is recorded as “increased; also recorded: most powerful stimulus; also recorded: potent agents for upregulating”. Further, the “SgII gene expression increase” value in test [3] stood at 55%. The “change in SgII gene expression (in words)” value in test [3] (listed as NA) is reported as “potent agents for upregulating; also recorded: increased”.

For the compound interleukin-1β, in test [1] (setting [4]), the “change in CgB gene expression (in words)” value was “no significant change”. Besides, the “change in SgII gene expression (in words)” value in test [3] is on record as “no significant change”.

Turning to `C=C[C@@]1(C)CC(=O)[C@]2(O)[C@@]3(C)[C@@H](O)CCC(C)(C)[C@@H]3[C@H](O)[C@H](OC(C)=O)[C@@]2(C)O1` [Forskolin], the “CgB production (gene expression) increase” value in test [1] (setting [4]) stood at 60%. Besides, the “SgII gene expression increase” value in test [3] is 40%.

“secretoneurin: 33 amino acid peptide fragment of SgII, 047-95, Phoenix Pharmaceuticals (TNEIVEEQYTPQSLATLESVFQELGKLTGPNNQ; Secretoneurin; UniProt P13521 182-214, looked up)”: in test [1] (setting [4]), the “change in CgB gene expression (in words)” value is on record as “did not affect”. Besides, the “change in BNP gene expression (in words)” value in test [2] is “did not affect”. For the same compound, the “change in SgII gene expression (in words)” value in test [3] is listed as “did not affect”; in test [3] (listed as SgII), “no significant change”.

Consider `CC[C@H](C)[C@H](NC(=O)[C@H](CC(=O)O)NC(=O)[C@H](CC(C)C)NC(=O)[C@H](Cc1c[nH]cn1)NC(=O)[C@@H]1CSSC[C@H](N)C(=O)N[C@@H](CO)C(=O)N[C@H]2CSSC[C@H](NC(=O)[C@H](CCC(=O)O)NC(=O)[C@H](CCCCN)NC(=O)[C@H](CC(=O)O)NC(=O)[C@H](CCSC)NC(=O)[C@H](CC(C)C)NC(=O)[C@H](CO)NC(=O)[C@H](CO)NC2=O)C(=O)N[C@@H](C(C)C)C(=O)N[C@@H](Cc2ccc(O)cc2)C(=O)N[C@@H](Cc2ccccc2)C(=O)N1)C(=O)N[C@H](C(=O)N[C@@H](Cc1c[nH]c2ccccc12)C(=O)O)[C@@H](C)CC` [endothelin], for which, in test [1] (setting [4]), the “change in CgB gene expression (in words)” value is listed as “no significant change”. In addition, the “change in BNP gene expression (in words)” value in test [2] was “increased”. Further, in test [3], the “change in SgII gene expression (in words)” value was “no significant change”.

As to tumor necrosis factor-α, the “change in CgB gene expression (in words)” value in test [1] (setting [4]) is “no significant change”. In addition, the “change in SgII gene expression (in words)” value in test [3] is recorded as “no significant change”.
